This note sets out measurements from ChEMBL document CHEMBL5291721, “A preclinical secondary pharmacology resource illuminates target-adverse drug reaction associations of marketed drugs” (Nat Commun, 2023).

Some results are limits rather than exact numbers.

One experiment concerns the target T1, Substance-K receptor (Homo sapiens, UniProt P21452).
T1 sequence (P21452 whole entry): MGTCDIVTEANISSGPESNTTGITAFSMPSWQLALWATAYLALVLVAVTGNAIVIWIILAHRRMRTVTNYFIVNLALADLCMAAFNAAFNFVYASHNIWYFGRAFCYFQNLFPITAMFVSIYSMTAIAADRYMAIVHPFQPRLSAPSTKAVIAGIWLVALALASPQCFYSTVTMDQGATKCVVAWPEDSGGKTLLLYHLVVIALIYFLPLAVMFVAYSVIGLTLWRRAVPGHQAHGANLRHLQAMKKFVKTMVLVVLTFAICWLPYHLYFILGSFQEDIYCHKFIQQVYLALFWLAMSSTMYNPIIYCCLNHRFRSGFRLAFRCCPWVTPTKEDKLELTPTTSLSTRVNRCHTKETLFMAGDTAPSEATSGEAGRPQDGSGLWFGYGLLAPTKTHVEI

The target in experiment [1] is T2, Peroxisome proliferator-activated receptor alpha (Homo sapiens, UniProt Q07869).
T2 sequence (Q07869 whole entry): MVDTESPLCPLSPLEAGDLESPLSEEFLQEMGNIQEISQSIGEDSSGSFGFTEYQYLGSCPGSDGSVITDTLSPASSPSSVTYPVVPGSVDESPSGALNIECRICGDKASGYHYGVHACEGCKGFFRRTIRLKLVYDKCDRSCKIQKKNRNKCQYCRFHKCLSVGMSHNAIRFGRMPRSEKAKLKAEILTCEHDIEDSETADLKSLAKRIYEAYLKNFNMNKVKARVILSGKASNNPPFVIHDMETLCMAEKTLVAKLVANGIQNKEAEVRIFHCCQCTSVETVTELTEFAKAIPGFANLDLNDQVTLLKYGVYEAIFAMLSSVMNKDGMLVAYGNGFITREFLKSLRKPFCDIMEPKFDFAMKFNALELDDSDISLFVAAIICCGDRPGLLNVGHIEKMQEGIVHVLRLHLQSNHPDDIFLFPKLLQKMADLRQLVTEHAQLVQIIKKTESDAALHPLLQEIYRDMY
In kind it is functional.

Experiment [2] deals with T3, Nuclear receptor subfamily 1 group I member 3 (Homo sapiens, UniProt Q14994).
T3 sequence (Q14994 whole entry): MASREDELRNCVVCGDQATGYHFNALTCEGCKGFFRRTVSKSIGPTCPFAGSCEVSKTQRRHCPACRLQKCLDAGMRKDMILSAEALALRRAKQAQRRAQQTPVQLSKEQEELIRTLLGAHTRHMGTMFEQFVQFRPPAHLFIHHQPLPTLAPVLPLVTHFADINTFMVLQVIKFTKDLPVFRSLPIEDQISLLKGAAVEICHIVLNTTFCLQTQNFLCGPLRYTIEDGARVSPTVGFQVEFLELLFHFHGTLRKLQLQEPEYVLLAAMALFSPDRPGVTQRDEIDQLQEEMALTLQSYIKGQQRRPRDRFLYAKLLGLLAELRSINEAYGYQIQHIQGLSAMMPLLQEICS
In kind it is functional.

A further experiment has as its target T4, Thromboxane A2 receptor (Homo sapiens, UniProt P21731).
T4 sequence (P21731 whole entry): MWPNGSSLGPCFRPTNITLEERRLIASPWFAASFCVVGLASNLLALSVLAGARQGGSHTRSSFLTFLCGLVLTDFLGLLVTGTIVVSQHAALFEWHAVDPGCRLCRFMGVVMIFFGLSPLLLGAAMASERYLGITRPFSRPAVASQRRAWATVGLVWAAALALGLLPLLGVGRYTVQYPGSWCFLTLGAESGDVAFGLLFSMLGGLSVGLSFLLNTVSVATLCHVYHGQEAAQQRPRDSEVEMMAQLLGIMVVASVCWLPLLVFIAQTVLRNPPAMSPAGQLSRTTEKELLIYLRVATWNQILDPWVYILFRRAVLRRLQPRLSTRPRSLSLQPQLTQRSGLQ
In kind it is functional.

Experiment [3] has as its target T5, Oxysterols receptor LXR-alpha (Homo sapiens, UniProt Q13133).
T5 sequence (Q13133 whole entry): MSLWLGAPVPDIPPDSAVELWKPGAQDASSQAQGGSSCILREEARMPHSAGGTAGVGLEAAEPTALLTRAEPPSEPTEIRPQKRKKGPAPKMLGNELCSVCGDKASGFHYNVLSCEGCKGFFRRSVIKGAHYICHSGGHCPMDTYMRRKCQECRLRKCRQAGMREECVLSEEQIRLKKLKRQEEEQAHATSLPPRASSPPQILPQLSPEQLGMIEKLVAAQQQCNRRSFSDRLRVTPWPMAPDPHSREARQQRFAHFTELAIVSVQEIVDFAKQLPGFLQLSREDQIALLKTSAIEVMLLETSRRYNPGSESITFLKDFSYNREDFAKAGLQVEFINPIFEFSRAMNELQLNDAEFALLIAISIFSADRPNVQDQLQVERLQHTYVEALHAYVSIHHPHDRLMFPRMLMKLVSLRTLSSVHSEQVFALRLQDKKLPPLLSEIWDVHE
It is filed as functional.

For experiment [4], the target named is T6, Retinoic acid receptor gamma (Homo sapiens, UniProt P13631).
T6 sequence (P13631 whole entry): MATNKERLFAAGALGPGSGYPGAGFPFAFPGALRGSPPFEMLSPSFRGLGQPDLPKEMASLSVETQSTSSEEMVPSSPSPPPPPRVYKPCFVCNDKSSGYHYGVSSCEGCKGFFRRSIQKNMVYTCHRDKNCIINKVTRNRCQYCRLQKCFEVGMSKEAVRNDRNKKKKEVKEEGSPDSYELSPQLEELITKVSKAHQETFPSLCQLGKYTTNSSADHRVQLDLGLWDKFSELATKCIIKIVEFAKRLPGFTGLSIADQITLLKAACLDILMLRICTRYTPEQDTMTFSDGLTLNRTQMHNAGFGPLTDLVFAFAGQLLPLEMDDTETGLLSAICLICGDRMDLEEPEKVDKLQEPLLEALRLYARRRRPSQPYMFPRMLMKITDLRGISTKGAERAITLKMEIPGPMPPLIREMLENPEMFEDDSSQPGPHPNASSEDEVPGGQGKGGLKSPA
It is filed as functional, cell-based.

Experiment [5] deals with Hydroxycarboxylic acid receptor 2 (Homo sapiens, UniProt Q8TDS4).
Sequence of Hydroxycarboxylic acid receptor 2 (Q8TDS4 whole entry): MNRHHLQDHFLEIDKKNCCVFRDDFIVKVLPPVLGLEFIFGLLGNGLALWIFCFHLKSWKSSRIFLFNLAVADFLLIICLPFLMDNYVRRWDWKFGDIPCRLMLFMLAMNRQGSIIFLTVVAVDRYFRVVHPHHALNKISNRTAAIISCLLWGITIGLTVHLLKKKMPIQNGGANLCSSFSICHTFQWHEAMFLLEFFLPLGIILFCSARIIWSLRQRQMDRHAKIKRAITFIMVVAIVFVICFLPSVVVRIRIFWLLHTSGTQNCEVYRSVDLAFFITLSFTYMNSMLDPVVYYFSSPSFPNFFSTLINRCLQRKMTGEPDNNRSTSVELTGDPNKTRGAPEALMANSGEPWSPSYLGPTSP
Further: assay procedure not described here.

By AC50 is commonly meant the concentration giving half of the maximal activity seen. The low end stands for greater potency, the high end for weaker potency. Take `CCCN(CCC)C(=O)Cc1c(-c2ccc(Cl)cc2)nc2ccc(Cl)cn12` [ALPIDEM]: on Substance-K receptor, the AC50 was > 10 µM.

For the compound `COc1ccccc1Oc1c(NS(=O)(=O)c2ccc(C(C)(C)C)cc2)nc(-c2ncccn2)nc1OCCO` [BOSENTAN], the figures for the concentration at half-maximal activity (AC50) in experiment [1] and in experiment [2] were > 30 µM and 2.1 µM, respectively. For `COc1cc2nccc(Oc3ccc(NC(=O)C4(C(=O)Nc5ccc(F)cc5)CC4)cc3)c2cc1OC` [CABOZANTINIB], the half-maximal activity concentration (AC50) on Thromboxane A2 receptor was > 30 µM. Consider `CC(C(=O)O)c1ccc2c(c1)[nH]c1ccc(Cl)cc12` (centres undefined) [CARPROFEN], for which the AC50 in experiment [3], in experiment [4] and in experiment [2] was > 30 µM in each case. For `C[C@H]1c2cccc(O)c2C(=O)C2=C(O)[C@]3(O)C(=O)C(C(N)=O)=C(O)[C@@H](N(C)C)[C@@H]3[C@@H](O)[C@@H]21` [DOXYCYCLINE], the AC50 in experiment [5] was > 10 µM. On to `CC(C)Cc1ccc(C(C)C(=O)O)cc1` (centres undefined) [IBUPROFEN], for which the AC50 in experiment [1] is > 30 µM. For the compound `CO[C@H]1/C=C/O[C@@]2(C)Oc3c(C)c(O)c4c(O)c(c(/C=N/N5CCN(C)CC5)c(O)c4c3C2=O)NC(=O)/C(C)=C\C=C\[C@H](C)[C@H](O)[C@@H](C)[C@@H](O)[C@@H](C)[C@H](OC(C)=O)[C@@H]1C` [RIFAMPIN], the AC50 in experiment [2] is > 30 µM. In the case of `N[C@@H](CC(=O)N1CCn2c(nnc2C(F)(F)F)C1)Cc1cc(F)c(F)cc1F` [SITAGLIPTIN], the AC50 on Substance-K receptor is > 10 µM. In the case of `Nc1ccc(S(=O)(=O)Nc2nccs2)cc1` [SULFATHIAZOLE], the AC50 in experiment [5] was > 10 µM. In the case of `CCN(CC)CCNC(=O)c1c(C)[nH]c(/C=C2\C(=O)Nc3ccc(F)cc32)c1C` [SUNITINIB], the AC50 in experiment [3] is > 10 µM; in experiment [4] it was > 10 µM; in experiment [2], > 30 µM. `C=CC[C@@H]1/C=C(\C)C[C@H](C)C[C@H](OC)[C@H]2O[C@@](O)(C(=O)C(=O)N3CCCC[C@H]3C(=O)O[C@H](/C(C)=C/[C@@H]3CC[C@@H](O)[C@H](OC)C3)[C@H](C)[C@@H](O)CC1=O)[C@H](C)C[C@@H]2OC` [TACROLIMUS ANHYDROUS]: the AC50 at Thromboxane A2 receptor was > 30 µM.

As to `Cc1onc(-c2ccccc2)c1-c1ccc(S(N)(=O)=O)cc1` [VALDECOXIB], the concentration at half-maximal activity (AC50) (at Substance-K receptor; in experiment [5]) was > 10 µM in each case. In the case of `CCCC(CCC)C(=O)O` [VALPROIC ACID], at Substance-K receptor, the concentration at half-maximal activity (AC50) was > 10 µM.
